In ChEMBL document CHEMBL1201862, “PubChem BioAssay data set” (2004):
Calls of active or inactive are those of the source.

Legend:
[1] = Luminescence Cell-Based Dose Response HTS to Identify Inhibitors of 5'UTR Stem-Loop Driven Prion Protein mRNA Translation in H4 Neuroglioblastoma Cells. [Related pubchem assays: 1827 (Project Summary), 1813 (Primary HTS)]; type: functional
BJ [2] = assay: growth inhibition of engineered Ras-driven BJ cells – cell-based, alamar blue fluorescence, cherrypicked samples, dose response (AID 2631); type: functional; settings: Homo sapiens;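 note: confirmatory dose-response assay in RAS-dependent BJ fibroblasts engineered with TERT, LT and ST, with cytotoxicity read by fluorescence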
BJ [3] = assay: BJ-TERT-LT-ST fibroblast viability loss – cell-based, RAS-independent, luminescence, dose response (AID 1935); type: functional; settings: Homo sapiens;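 note: BJ fibroblasts immortalized with TERT plus LT and ST oncogenes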
BJ [4] = assay: cells; type: functional, cell-based; settings: Homo sapiens
[5] = alpha-synuclein stem-loop luciferase translation blockers – H4 neuroglioma cells, luminescence, confirmation (AID 1988); type: functional, cell-based
[6] = DRD fibroblast viability loss – cell-based, non-viral oncogenic, luminescence, dose response (AID 1934); type: functional; settings: Homo sapiens
[7] = luciferase reporter signal suppression in cells – H4 neuroglioma cells, luminescence, dose response (AID 1990); type: functional, cell-based
BJ [8] = assay: BJ-TERT fibroblast viability loss – cell-based, RAS-independent, luminescence, dose response (AID 1933); type: functional; settings: Homo sapiens
[9] = reduction of Shn3 3'UTR-driven luciferase in osteoblasts – cell-based, Clone20 osteoblasts, firefly luciferase, cherry-picked, dose response (AID 624132); type: functional;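 note: firefly luciferase luminescence from reporter carrying the Shn3 3'UTR in osteoblasts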
[10] = molecular target: T1, Peroxisome proliferator-activated receptor gamma/Nuclear receptor coactivator 1 (Homo sapiens, UniProt P37231); assay: TR-FRET dose response biochemical High Throughput Screening assay for agonists of the steroid receptor coactivator 1 (SRC-1) recruitment by the peroxisome proliferator-activated receptor gamma (PPAR gamma): non-selective agonists. [Related pubchem assays (depositor defined):AID1300, AID1808, AID504735, AID631]; type: protein assay
T1 sequence (P37231 whole entry): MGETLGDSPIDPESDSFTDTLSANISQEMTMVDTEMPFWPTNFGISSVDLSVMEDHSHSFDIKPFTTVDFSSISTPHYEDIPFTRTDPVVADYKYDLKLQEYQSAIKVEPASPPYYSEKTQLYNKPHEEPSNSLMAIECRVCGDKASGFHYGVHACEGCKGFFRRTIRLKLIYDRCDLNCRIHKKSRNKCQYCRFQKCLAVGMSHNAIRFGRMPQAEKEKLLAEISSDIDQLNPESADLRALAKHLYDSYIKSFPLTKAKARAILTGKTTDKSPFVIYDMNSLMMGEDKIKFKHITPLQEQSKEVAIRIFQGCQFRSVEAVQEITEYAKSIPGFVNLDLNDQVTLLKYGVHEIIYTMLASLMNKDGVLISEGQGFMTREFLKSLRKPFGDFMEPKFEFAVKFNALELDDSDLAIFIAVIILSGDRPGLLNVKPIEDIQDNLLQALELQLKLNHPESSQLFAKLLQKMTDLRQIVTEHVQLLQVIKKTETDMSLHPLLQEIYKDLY
T1 sequence (Q15788 whole entry, further chain): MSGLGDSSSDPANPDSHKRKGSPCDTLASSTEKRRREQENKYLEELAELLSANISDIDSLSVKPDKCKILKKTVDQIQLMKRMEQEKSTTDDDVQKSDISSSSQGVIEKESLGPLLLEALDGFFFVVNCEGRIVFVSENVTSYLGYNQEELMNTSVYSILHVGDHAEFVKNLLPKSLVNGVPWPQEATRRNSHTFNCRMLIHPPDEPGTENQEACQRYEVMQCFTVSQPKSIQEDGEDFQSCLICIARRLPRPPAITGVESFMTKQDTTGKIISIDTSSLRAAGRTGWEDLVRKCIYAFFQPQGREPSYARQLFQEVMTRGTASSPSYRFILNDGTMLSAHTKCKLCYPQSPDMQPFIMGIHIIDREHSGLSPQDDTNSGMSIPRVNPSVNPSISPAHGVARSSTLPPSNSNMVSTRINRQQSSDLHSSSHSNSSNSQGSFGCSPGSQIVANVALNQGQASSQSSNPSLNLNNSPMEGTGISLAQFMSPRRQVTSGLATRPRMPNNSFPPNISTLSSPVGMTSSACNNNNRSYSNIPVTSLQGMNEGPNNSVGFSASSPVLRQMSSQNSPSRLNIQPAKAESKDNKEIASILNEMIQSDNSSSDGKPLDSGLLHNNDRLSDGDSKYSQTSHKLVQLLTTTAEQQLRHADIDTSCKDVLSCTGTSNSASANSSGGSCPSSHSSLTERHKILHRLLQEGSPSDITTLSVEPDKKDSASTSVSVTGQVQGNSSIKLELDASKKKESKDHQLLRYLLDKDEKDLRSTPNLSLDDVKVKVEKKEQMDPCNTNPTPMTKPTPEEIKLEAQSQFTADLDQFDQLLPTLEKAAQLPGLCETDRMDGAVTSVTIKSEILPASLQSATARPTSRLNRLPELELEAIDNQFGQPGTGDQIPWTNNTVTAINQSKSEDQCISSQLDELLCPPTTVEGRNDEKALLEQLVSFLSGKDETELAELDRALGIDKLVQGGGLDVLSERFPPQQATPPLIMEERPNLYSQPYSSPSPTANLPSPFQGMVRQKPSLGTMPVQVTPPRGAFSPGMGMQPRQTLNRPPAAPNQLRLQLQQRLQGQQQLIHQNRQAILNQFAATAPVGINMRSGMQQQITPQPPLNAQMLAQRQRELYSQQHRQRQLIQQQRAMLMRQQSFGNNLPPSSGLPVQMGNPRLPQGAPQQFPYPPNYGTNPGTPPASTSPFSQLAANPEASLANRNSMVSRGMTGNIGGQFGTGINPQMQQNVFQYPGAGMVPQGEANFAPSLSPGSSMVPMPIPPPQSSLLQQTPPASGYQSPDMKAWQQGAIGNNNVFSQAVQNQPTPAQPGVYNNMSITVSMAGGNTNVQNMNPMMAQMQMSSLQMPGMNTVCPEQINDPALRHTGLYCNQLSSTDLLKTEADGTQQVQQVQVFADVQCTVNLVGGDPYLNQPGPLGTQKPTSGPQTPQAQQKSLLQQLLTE

[11] = molecular target: T2, Peroxisome proliferator-activated receptor gamma/Nuclear receptor coactivator 2 (Homo sapiens, UniProt P37231); assay: TR-FRET dose response biochemical High Throughput Screening assay for agonists of the steroid receptor coactivator 2 (SRC-2) recruitment by the peroxisome proliferator-activated receptor gamma (PPAR gamma): non-selective agonists. [Related pubchem assays: 1297, 1032 ]; type: functional
T2 sequence (P37231 whole entry): as the sequence (P37231 whole entry) above
T2 sequence (Q15596 whole entry, further chain): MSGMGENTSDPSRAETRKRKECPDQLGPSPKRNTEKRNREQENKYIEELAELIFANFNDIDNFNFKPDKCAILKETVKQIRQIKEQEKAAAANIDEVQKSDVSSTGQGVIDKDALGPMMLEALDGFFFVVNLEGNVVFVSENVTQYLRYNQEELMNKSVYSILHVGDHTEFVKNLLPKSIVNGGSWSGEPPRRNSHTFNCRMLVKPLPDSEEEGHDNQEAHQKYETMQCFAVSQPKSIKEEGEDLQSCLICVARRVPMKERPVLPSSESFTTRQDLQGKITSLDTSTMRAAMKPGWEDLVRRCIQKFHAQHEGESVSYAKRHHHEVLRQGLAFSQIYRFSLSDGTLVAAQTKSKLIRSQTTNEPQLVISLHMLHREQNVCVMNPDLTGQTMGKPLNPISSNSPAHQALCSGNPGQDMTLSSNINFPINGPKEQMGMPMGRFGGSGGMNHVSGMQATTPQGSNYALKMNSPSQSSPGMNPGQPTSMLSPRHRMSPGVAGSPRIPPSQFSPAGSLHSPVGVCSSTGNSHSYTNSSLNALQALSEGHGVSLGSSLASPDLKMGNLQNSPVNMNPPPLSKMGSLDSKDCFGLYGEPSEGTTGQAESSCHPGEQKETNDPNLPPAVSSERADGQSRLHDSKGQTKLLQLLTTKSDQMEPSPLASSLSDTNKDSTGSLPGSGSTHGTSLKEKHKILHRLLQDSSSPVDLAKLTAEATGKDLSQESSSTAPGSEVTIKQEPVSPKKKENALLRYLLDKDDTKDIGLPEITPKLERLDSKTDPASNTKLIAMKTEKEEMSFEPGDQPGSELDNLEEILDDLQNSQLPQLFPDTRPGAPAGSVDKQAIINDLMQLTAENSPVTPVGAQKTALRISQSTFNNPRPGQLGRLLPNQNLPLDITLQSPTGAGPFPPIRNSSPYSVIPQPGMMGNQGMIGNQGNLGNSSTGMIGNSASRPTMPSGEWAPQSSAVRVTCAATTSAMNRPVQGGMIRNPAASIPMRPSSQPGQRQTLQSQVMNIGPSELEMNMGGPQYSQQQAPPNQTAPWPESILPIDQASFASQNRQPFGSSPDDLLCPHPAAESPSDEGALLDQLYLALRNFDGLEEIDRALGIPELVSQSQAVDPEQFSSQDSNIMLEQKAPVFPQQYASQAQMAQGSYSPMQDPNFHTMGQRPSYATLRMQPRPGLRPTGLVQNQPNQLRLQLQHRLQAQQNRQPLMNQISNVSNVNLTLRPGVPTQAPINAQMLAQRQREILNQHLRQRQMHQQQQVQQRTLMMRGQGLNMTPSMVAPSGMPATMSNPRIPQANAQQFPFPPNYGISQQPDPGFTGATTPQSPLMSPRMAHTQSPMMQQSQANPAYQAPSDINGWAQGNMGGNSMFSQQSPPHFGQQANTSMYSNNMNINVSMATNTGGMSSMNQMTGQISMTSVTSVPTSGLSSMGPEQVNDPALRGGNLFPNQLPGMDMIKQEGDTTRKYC

[12] = molecular target: T3, Peroxisome proliferator-activated receptor gamma/Nuclear receptor coactivator 3 (Homo sapiens, UniProt P37231); assay: TR-FRET dose response biochemical High Throughput Screening assay for agonists of the steroid receptor coactivator 3 (SRC-3) recruitment by the peroxisome proliferator-activated receptor gamma (PPAR gamma): non-selective agonists. [Related pubchem assays: 1301 (Confirmation screen.), 1048 (Primary screen.)]; type: functional
[13] = molecular target: T4, Short transient receptor potential channel 4 (Mus musculus, UniProt Q9QUQ5); assay: block of DAMGO-driven TRPC4 calcium entry – cell-based, HEK293 TRPC4/mu-opioid, Fluo-4 calcium, dose response (AID 434942); type: functional;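 note: potency of inhibitors blocking the TRPC4 calcium response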
T4 sequence (Q9QUQ5 whole entry): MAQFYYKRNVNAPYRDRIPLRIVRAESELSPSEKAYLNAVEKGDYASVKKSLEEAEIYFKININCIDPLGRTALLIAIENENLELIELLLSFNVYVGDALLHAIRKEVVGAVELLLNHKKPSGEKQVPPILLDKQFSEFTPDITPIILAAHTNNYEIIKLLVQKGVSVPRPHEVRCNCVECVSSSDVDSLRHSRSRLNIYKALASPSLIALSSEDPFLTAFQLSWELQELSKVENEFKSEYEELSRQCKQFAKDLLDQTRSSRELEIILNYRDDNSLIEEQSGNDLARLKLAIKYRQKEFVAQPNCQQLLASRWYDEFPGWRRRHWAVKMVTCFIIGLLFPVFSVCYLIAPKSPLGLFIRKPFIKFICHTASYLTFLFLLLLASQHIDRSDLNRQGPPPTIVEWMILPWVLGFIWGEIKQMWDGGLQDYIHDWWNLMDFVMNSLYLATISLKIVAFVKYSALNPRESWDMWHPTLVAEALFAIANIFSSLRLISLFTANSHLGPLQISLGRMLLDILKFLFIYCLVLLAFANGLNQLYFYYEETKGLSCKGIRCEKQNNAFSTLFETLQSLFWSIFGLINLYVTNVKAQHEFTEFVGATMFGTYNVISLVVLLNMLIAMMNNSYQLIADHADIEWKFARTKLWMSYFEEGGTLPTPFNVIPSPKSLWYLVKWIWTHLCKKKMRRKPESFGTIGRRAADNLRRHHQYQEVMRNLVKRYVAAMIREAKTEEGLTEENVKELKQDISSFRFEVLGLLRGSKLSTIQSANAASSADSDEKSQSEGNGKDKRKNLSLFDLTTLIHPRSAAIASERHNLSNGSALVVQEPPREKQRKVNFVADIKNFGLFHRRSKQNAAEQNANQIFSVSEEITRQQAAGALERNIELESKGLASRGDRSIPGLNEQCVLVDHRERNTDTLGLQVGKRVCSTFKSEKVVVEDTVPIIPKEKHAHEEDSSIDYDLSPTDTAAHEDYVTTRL

[14] = molecular target: T4, Short transient receptor potential channel 4; assay: calcium entry via TRPC4 opening agents – cell-based, HEK293 TRPC4/mu-opioid, Fluo-4 calcium, dose response (AID 434937); type: functional
[15] = molecular target: T5, Microphthalmia-associated transcription factor (Homo sapiens, UniProt O75030); assay: reducers of TRPM1 reporter luminescence, concentration series – cell-based, SK-MEL-5, cherry-picked, set 3, MITF inhibitor project, dose response (AID 493073); type: functional;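 note: SK-MEL-5 melanoma cells with luciferase driven by the MITF target TRPM1 promoter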
T5 sequence (O75030 whole entry): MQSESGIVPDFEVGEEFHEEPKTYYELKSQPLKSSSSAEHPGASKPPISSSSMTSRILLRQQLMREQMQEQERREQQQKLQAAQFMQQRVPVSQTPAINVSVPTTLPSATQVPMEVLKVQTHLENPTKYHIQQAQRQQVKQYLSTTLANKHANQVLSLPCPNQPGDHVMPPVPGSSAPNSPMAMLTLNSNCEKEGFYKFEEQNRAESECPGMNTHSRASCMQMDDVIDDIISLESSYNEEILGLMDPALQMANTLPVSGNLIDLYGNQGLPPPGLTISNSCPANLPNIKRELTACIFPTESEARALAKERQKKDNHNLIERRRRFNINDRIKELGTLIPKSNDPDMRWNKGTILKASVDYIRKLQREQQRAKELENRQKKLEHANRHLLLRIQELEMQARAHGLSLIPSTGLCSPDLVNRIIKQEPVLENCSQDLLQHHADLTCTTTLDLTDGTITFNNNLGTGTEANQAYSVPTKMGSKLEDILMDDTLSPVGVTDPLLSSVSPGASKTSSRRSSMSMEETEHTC

[16] = molecular target: T2, Peroxisome proliferator-activated receptor gamma/Nuclear receptor coactivator 2; type: functional
[17] = molecular target: T3, Peroxisome proliferator-activated receptor gamma/Nuclear receptor coactivator 3; type: functional
[18] = molecular target: T1, Peroxisome proliferator-activated receptor gamma/Nuclear receptor coactivator 1; type: functional
[19] = molecular target: T6, Luciferin 4-monooxygenase (Photinus pyralis, UniProt P08659); assay: Counter Screen for Luciferase-based Assay Positives. [Related pubchem assays: 620, 618, 411 ]
T6 sequence (P08659 whole entry): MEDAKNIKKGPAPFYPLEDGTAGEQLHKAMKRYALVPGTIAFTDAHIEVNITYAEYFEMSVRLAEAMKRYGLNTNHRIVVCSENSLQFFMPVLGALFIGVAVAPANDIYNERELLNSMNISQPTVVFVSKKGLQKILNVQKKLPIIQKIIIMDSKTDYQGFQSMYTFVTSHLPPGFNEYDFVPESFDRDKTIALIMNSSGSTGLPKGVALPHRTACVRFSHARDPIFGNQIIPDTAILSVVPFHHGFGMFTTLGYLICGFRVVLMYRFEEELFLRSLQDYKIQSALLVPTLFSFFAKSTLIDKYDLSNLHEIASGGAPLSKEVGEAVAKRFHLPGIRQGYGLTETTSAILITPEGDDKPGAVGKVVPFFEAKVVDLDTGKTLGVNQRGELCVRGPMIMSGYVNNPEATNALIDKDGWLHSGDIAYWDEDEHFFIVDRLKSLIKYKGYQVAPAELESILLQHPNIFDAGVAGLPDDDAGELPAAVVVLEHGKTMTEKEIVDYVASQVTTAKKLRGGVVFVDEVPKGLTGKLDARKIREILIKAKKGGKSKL

HT-1080 = assay: HT1080 cell viability loss – fluorescence readout (AID 620); type: functional, cell-based; settings: Homo sapiens
HEK293 [20] = assay: NOD2 signaling inhibitors in MDP-stimulated cells, cell-based, uHTS, luminescence (AID 2001); type: functional; settings: Homo sapiens
HEK293 [21] = assay: cells; type: functional, cell-based; settings: Homo sapiens
HEK293 [22] = assay: inhibition of NOD1-driven NF-kB reporter – cell-based, luminescence, uHTS, primary screen (AID 1578); type: functional; settings: Homo sapiens
HEK293 [23] = assay: cells; type: functional, cell-based; settings: Homo sapiens; remark: listed apart in the source
[24] = molecular target: T7, Voltage-gated N-type calcium channel alpha-1B subunit/Amyloid beta A4 precursor protein-binding family A member 1 (Homo sapiens, UniProt Q00975+Q02410); type: protein assay
[25] = molecular target: T7, Voltage-gated N-type calcium channel alpha-1B subunit/Amyloid beta A4 precursor protein-binding family A member 1; type: protein assay; remark: listed apart in the source
[26] = microbe, parasite or virus in culture; type: functional; settings: Mycobacterium tuberculosis
Cytochrome P450 2C9 = Cytochrome P450 2C9 (Homo sapiens, UniProt P11712)
Cytochrome P450 2C9, sequence (P11712 whole entry): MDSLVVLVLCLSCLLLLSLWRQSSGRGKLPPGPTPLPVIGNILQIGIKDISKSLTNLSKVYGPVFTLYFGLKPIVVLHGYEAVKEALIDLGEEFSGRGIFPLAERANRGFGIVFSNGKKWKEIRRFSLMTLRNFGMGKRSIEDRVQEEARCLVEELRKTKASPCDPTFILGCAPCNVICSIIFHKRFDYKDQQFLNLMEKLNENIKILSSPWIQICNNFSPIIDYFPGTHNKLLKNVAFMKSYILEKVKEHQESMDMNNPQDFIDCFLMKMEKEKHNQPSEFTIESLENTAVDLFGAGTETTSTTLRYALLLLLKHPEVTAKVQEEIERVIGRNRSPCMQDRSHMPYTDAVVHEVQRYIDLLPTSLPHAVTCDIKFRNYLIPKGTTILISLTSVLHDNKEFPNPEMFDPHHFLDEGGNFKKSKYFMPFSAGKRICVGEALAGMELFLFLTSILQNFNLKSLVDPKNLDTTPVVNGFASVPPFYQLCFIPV

Cytochrome P450 1A2 = molecular target: T8, Cytochrome P450 1A2 (Homo sapiens, UniProt P05177);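 note: PubChem cytochrome P450 panel assay, CYP1A2 panel member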
T8 sequence (P05177 whole entry): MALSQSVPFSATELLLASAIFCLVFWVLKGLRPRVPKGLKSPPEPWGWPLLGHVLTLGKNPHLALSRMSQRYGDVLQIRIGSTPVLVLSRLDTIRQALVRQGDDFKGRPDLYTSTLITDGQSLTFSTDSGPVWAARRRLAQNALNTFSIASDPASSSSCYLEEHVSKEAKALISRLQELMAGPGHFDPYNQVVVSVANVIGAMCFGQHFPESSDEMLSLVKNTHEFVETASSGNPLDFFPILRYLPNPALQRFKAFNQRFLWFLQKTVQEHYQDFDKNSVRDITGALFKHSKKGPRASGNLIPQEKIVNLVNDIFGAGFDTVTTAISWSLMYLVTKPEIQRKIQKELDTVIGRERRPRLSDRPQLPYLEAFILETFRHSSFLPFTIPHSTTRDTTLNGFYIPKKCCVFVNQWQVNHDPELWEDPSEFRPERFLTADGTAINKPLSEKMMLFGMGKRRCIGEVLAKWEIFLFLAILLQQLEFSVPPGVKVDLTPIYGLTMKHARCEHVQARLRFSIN

[27] = Trypanosoma cruzi growth suppression in host cells – NIH3T3 host cells, beta-gal luminescence, confirmation (AID 2044); type: functional, cell-based;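 note: intracellular parasites grown in NIH/3T3 mouse fibroblasts as host cells; luminescent beta-galactosidase reporter signal from transgenic T. cruzi replicating inside host cells; inhibitors lower the luminescence signal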
[28] = NIH3T3 cell viability loss – ATP luminescence, mouse fibroblasts, counter-screen, dose response (AID 2010); type: functional, cell-based;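 note: cells exposed to compound for about 90 hours before reading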
[29] = Luminescence Cell-Based Dose Confirmation HTS to Identify Inhibitors of Platelet Dense Granule Release. [Related pubchem assays: 1663 (Primary HTS), 1678 (Summary of Project)]; type: functional
[30] = molecular target: T6, Luciferin 4-monooxygenase; assay: inhibition of purified Photinus pyralis luciferase – biochemical, luminescence, dose response (AID 1891)

CC1(C)CC(=O)c2c(nc(SCC(=O)Nc3nsc(-c4ccccc4)n3)c(C#N)c2-c2ccccc2)C1
EC50 [1]: > 120 µM (not active) | EC50 (BJ [2]): 0.596 µM (active) | EC50 (BJ [3]): > 150 µM (not active) | EC50 (BJ [4]): 7.76 µM (active) | EC50 [5]: 13.4 µM (active) | EC50 [6]: 35 µM (active) | EC50 [7]: > 120 µM (not active) | EC50 (BJ [8]): > 150 µM (not active) | AC50 [9]: > 70 µM (inactive)

Cc1ccc(C(=O)C2=C(O)C(=O)N(c3ncccn3)C2c2ccc(Cl)cc2)o1 (stereo not given)
EC50 [10]: > 79.4 µM (inactive) | EC50 [11]: 35.8 µM (not active) | EC50 [12]: > 79.4 µM (not active)

O=[N+]([O-])c1cc2c(cc1CNCCc1ccc3c(c1)OCO3)OCO2
EC50 [13]: 1.06 µM (active) | EC50 [14]: 3.35 µM (active)

O=C(Nc1cc(-c2nc3ncccc3o2)ccc1Cl)c1ccc([N+](=O)[O-])o1
AC50 [15]: 5.76 µM (active)

c1ccc(-n2ncc3c2ncn2nc(-c4ccco4)nc32)cc1
EC50 [16]: 16.2 µM (not active) | EC50 [17]: > 79.4 µM (not active) | EC50 [18]: > 79.4 µM (not active)

COc1cccc(CNC(=O)CSc2cc(=O)n(C)c3ccccc23)c1
EC50 [10]: > 79.4 µM (inactive) | EC50 [11]: > 79.4 µM (not active) | EC50 [12]: > 79.4 µM (not active)

CC1CCc2nc(NC(=O)CN3CCN(Cc4ccc5c(c4)OCO5)CC3)sc2C1 (stereo not given)
EC50 [13]: 0.299 µM (active)

O=C(Nc1ccc(N2CCCCC2)cc1)c1ccccc1
EC50 [16]: > 79.4 µM (not active) | EC50 [17]: > 79.4 µM (not active) | EC50 [19]: 1.28 µM (active) | EC50 (HT-1080): > 50 µM (not active) | EC50 [18]: > 79.4 µM (not active)

COc1ccc(NS(=O)(=O)c2ccc3c(c2)Cc2ccccc2-3)cn1
IC50 (HEK293 [20]): 8.27 µM (active) | IC50 (HEK293 [21]): 9.79 µM (active) | EC50 (HEK293 [22]): 5.22 µM (active) | IC50 (HEK293 [23]): > 20 µM (inactive)

N#Cc1c(Cl)nc(SCc2ccccc2)nc1-c1ccccc1
EC50 [10]: 4.02 µM (active) | EC50 [11]: 5.16 µM (active) | EC50 [12]: > 79.4 µM (not active)

Cc1cc(Cl)c2oc(C(=O)N(C)Cc3nccn3C)c(C)c2c1
EC50 [13]: 0.531 µM (active)

C=CCOc1ccc(/C=C2\SC(=S)N(N3CCOCC3)C2=O)cc1
IC50 [24]: > 50 µM (inactive) | IC50 [25]: 4.43 µM (active)

CCc1ccc(-c2cc(C)no2)cc1S(=O)(=O)NCCCN1CCN(c2ccccc2)CC1
IC50 (HEK293 [20]): 4.26 µM (active) | IC50 (HEK293 [21]): 4.42 µM (active) | EC50 (HEK293 [22]): 6.88 µM (active) | CC50 [26]: 30.9 µM (active) | IC50 (HEK293 [23]): 7.44 µM (active)

CCn1c(N2CCN(C(=O)Nc3ccc(F)cc3)CC2)nc2ccccc21
AC50 (Cytochrome P450 2C9): inconclusive | AC50 (Cytochrome P450 1A2): 20 µM (inconclusive) | EC50 [14]: 0.944 µM (active)

COc1cc(CNCCCN2CCOCC2)cc(Br)c1OCc1ccc(Cl)cc1
EC50 [13]: 5.96 µM (active) | EC50 [27]: 0.531 µM (active) | EC50 [28]: 24 µM (active)

CC1CC(C)CN(CCCNC(=O)Cn2cccc2C(=O)c2ccccc2)C1 (stereo not given)
EC50 [14]: 1.19 µM (active)

O=c1c2cn[nH]c2[nH]c(=S)n1-c1cccc2ccccc12
EC50 [10]: > 79.4 µM (inactive) | EC50 [11]: > 79.4 µM (not active) | EC50 [12]: > 79.4 µM (not active)

COc1ccc2nc(NC(=O)c3ccoc3C)sc2c1
EC50 [29]: 0.468 µM (active) | EC50 (BJ [2]): > 133 µM (inactive) | EC50 [30]: 0.263 µM (active)
